From patent US12667582B2, “Composition containing 2′-FL for ameliorating, preventing or treating diseases caused by reduction of dopamine” (priority 2022, dated 2026) come the findings set out here.

Data set [1] concerns dopaminergic neuron culture from ventral mesencephalon tissue. The data set is described as follows: 6-OHDA-mediated dopaminergic degeneration in primary ventral mesencephalon neuron culture (tyrosine hydroxylase immunocytochemistry). In kind it is cell-based, Sprague-Dawley rats. The settings on record: 6-OHDA 100 μM alone, 48 hours, FIG. 2. As to the method: Dopaminergic neuron culture was prepared from ventral mesencephalon tissue of E14-E15 embryos obtained from pregnant Sprague-Dawley rats. Specifically, the dissected ventral brain tissue was pooled and agitated for 15 minutes at 37° C. to separate the cells in pre-warmed trypsin EDTA (025%) and then the cells were washed with DMEM (Dulbecco's modified Eagle medium)/F12 culture medium. After washing, essential growth factors were added thereto, followed by culturing. 50% of the culture medium was replaced with fresh culture medium on the 3rd and 5th days of culture and the result was allowed to stand. From the 7th day of culture, antioxidant factors were excluded.
In addition, on the 10th day of culture, the neurotoxic substances 6-OHDA and 6-OHDA+2′-FL were added to the cells. After 48 hours, the cells were immobilized using 4% PFA (paraformaldehyde; Sigma-Aldrich) (FIG. 1). FIG. 1 illustrates the timeline of an in vitro experiment.
The viability rate of dopamine cells was determined from the immobilized cells using immunocytochemistry using tyrosine hydroxylase. Six samples were used for each group. The composition of each group is shown in Table 1 below and the number of cells was 1×10^6 which was constant for each group.

For data set [2], the system named is TH (+) cells in the substantia nigra. The data set is described as follows: Tyrosine hydroxylase (TH) immunohistochemistry of dopaminergic neurons in substantia nigra. The settings on record: 6-OHDA HBr injected into left striatum; top of FIG. 6. In kind it is in vivo, mouse. As to the method: The mouse was anesthetized with chloral hydrate (400 mg/kg, ip) and fixed in a stereotaxic frame. 6-OHDA HBr (276 μg/μl×5 μl) was injected through a Hamilton microsyringe into two left striatum sites (1 mm AP, […] relative to bregma and […] and 1 mm AP, […] relative to bregma and […]) for 4 minutes (Day 0). Then, the mouse recovered from anesthesia was maintained at body temperature in a 37° C. incubator for 2 hours.
2′-FL (500 μM×20 μl) and saline (control; 20 μl) were injected into the nose from days 0 to 28. To determine whether or not Parkinson's disease was induced and to observe behavioral changes, methamphetamine was administered to […] and behavioral changes were observed on days 7, 21, and 28, respectively (FIG. 3). FIG. 3 illustrates the timeline of an in vivo experiment.
After the rotation test, the animals were slaughtered and brain tissue was removed therefrom (Veh, n=5; 2′-FL, n=4). The distribution of dopaminergic neurons was measured by immunohistochemistry using tyrosine hydroxylase (TH).
Specifically, the entire brain was sectioned to a thickness of 25 μm using a cryosection machine. […] The brain tissue was bound with a secondary antibody (concentration 1:500) and then was attached to a glass slide and expression was observed using a fluorescence microscope.

As to `NCCc1cc(O)c(O)cc1O` [6-OHDA], in data set [1], the “decrease in dopamine cells compared to the normal cell group” value is on record as “caused a severe decrease in dopamine cells”. Also, the “number of TH (+) cells in the substantia nigra after the toxin” value in data set [2] is given as “significantly reduced”.
